The source of these data is ChEMBL document CHEMBL1123119, “Analogues of platelet activating factor (PAF). 2. Some modifications of the glycerine backbone” (J Med Chem, 1985).

What all share (format): functional
The species entered for experiment [1] is Oryctolagus cuniculus. The experiment in a line: Effective concentration required to produce 50% of the maximum platelet aggregation using rabbit platelet-rich plasma was determined.
For another experiment, the species on record is Rattus norvegicus. As to the kind of experiment: Hypotensive activity of compound was determined in hypertensive rats, as dose required to decrease the mean arterial blood pressure 50 mmHg was determined.
The nature of experiment [2]: Ratio of MABP to that of platelet EC50 of the compound.
The species entered for experiment [3] is Oryctolagus cuniculus. The experiment in a line: Maximum platelet aggregation units at 5*10e-6 molar concentration was determined.
The species named for experiment [4] is Oryctolagus cuniculus. The experiment in a line: Maximum platelet aggregation units at 5*10e-4 molar concentration was determined.
The species named for experiment [5] is Oryctolagus cuniculus. The experiment in a line: Maximum platelet aggregation units at 1.3*10e-5 molar concentration was determined.
The species named for experiment [6] is Oryctolagus cuniculus. The experiment in a line: Maximum platelet aggregation units at 5*10e-5 molar concentration was determined.
Experiment [7] is filed under the species Oryctolagus cuniculus. As to the kind of experiment: Maximum platelet aggregation units at 1.9*10e-4 molar concentration was determined.

As a reminder, the EC50 is the concentration needed to bring the measured effect to its halfway point. As to `CCCCCCCCCCCCCCCCOCC(CCOP(=O)([O-])OCC[N+](C)(C)C)OC(C)=O` (centres undefined), the EC50 in the experiment listed under Oryctolagus cuniculus [1] was found to be 1.4 µM. In addition, the Dose in the experiment listed under Rattus norvegicus is 0.0475 mg/kg. In addition, in experiment [2], the Ratio was found to be 0.34. The compound also gave a Max aggregation response in the experiment filed under Oryctolagus cuniculus [3] of 65.
Turning to `CCCCCCCCCCCCCCCCOC(C)C(COP(=O)([O-])OCC[N+](C)(C)C)OC(C)=O` (centres undefined), the response in the experiment filed under Oryctolagus cuniculus [1] was half-maximal at 0.51 µM (EC50). For the same compound, in the experiment filed under Oryctolagus cuniculus [4], the Max aggregation response was 65. In addition, in the experiment filed under Rattus norvegicus, the Dose was 0.00712 mg/kg. Also, the Ratio in experiment [2] came to 0.14.
For `CCCCCCCCCCCCCCCCOCC(COP(=O)([O-])OCC[N+](C)(C)C)OC(C)=O` (centres undefined) [PLATELET ACTIVATING FACTOR], the EC50 in the experiment filed under Oryctolagus cuniculus [1] is 0.0194 µM. In the experiment listed under Rattus norvegicus, this compound showed a Dose of 0.00125 mg/kg. Moreover, the Max aggregation response in the experiment filed under Oryctolagus cuniculus [5] is 75. For the same compound, in experiment [2], the Ratio came to 0.65.
In turn, `CCCCCCCCCCCCCCCCOC(C)(C)C(COP(=O)([O-])OCC[N+](C)(C)C)OC(C)=O` (centres undefined) came in with an EC50 in the experiment listed under Oryctolagus cuniculus [1] of 11 µM. The compound also displayed a Dose in the experiment listed under Rattus norvegicus of 0.8757 mg/kg. The Max aggregation response in the experiment listed under Oryctolagus cuniculus [6] is on record as 64. The Ratio in experiment [2] came out at 0.8.
`CCCCCCCCCCCCCCCCOCCC(COP(=O)([O-])OCC[N+](C)(C)C)OC(C)=O` (centres undefined) showed an EC50 in the experiment listed under Oryctolagus cuniculus [1] of 1.5 µM. In the experiment filed under Rattus norvegicus, this compound had a Dose of 0.0243 mg/kg. The Max aggregation response in the experiment filed under Oryctolagus cuniculus [7] turned out to be 50. For the same compound, the Ratio in experiment [2] is 0.16.
`CCCCCCCCCCCCCCCCOCC(OC(C)=O)C(C)OP(=O)([O-])OCC[N+](C)(C)C` (centres undefined): a half-maximal response in the experiment listed under Oryctolagus cuniculus [1] (EC50) required 3.2 µM. The compound also came in with a Dose in the experiment listed under Rattus norvegicus of 0.0634 mg/kg. This compound also displayed a Max aggregation response in the experiment listed under Oryctolagus cuniculus [7] of 70. Also, the Ratio in experiment [2] worked out at 0.2.
